Values quoted from earlier work in patent US6765009B2, “1,4-Disubstituted benzo-fused compounds” (Boehringer Ingelheim Pharmaceuticals, Inc., priority 2001, dated 2004).

Columns and labels:
septic shock syndrome = conditions: phase III human clinical trial
closed brain injury = conditions: experimental model
rheumatoid arthritis = conditions: Phase III clinical trial

Compound: IL-1ra: "IL-1 receptor antagonist (IL-1ra) had been examined in human clinical trials" ... "(Antril, Amgen)"
- mortality rate in patients with septic shock syndrome (septic shock syndrome): reduced the mortality rate

Compound: CCCCCCC(C)(C)c1cc(O)c2c(c1)OC(C)(C)[C@H]1CC=C(CO)C[C@H]21 [HU-211]
- outcome of closed brain injury (closed brain injury): improve the outcome

Compound: Enbrel
- efficacy in treatment of rheumatoid arthritis (rheumatoid arthritis): demonstrated efficacy
